According to patent US10829522B2, “Peptide inhibiting colonization by pathogenic bacteria, and colonization inhibitor including same” (OSAKA UNIVERSITY, priority 2016, dated 2020):

Experiments:
ΔN28-CofB = experiment: Isothermal titration calorimetry, interaction with ΔN28-CofB; type: binding, enterotoxigenic Escherichia coli (ETEC); conditions: ITC; for Kd: 25° C., 20 mM Tris-HCl (pH 8.0), 150 mM NaCl, ΔN28-CofB in terms of trimer, read-out: dissociation constant Kd value; for binding affinity to ΔN28-CofB compared with the binding affinity between CofJ and ΔN28-CofB: stronger than CofJ
Description: The expression and purification methods were carried out according to past papers (Fukakusa, S, et al. Acta Cryst. 2012, D68, 1418-1429; Kawahara, K, et al. J. Mol. Biol, 2016, 428, 1209-1226).
Interaction analysis was performed using CofB, CofJ and ΔN24-CofJ prepared by the above methods. An isothermal titration calorimeter Microcal iTC 200 (manufactured by GE Healthcare) was used for analysis of the interaction between the secretory protein CofJ and ΔN28-CofB. A 0.59 mM CofJ solution was charged in a titration syringe and a 28.5 μM (in terms of trimer) ΔN28-CofB solution was charged in a measuring cell, respectively, and the interaction of them was evaluated by directly observing heat changes that occur upon dropping the CofJ solution into the ΔN28-CofB solution. Titration conditions were such that the initial dropping amount was 1 μL, the dropping amount at the second and subsequent times was 2 μL, and dropping was performed 20 times in total every 120 seconds. The measurement temperature was 25° C., and the solvent was 20 mM Tris-HCl (pH 8.0), 150 mM NaCl. An exothermic change was observed by dropping the CofJ solution, which converged to the same level as the heat of dilution as the titration progressed. As a result of analysis of the obtained data using an analysis software Origin (Microcal), binding of CofJ and ΔN28-CofB was observed. The dissociation constant Kd value of both was 0.2 μM.
Next, in order to investigate the contribution to binding to pili in the N-terminal region (1 to 24) of the secretory protein CofJ, analysis of the interaction between ΔN24-CofJ and ΔN28-CofB was carried out using an isothermal titration calorimeter Microcal iTC 200 (manufactured by GE Healthcare). A 0.59 mM ΔN24-CofJ solution was charged in a titration syringe and a 28.5 μM (in terms of trimer) ΔN28-CofB solution was charged in a measuring cell, respectively, and the interaction of them was evaluated by directly observing heat changes that occur upon dropping the ΔN24-CofJ solution into the ΔN28-CofB solution. No change in caloric value due to dropping of the ΔN24-CofJ solution was observed.
Furthermore, in order to investigate the contribution to binding to pili in the N-terminal region (1 to 24) of the secretory protein CofJ, analysis of the interaction between a synthetic peptide consisting of 24 amino acid residues at the N terminal of CofJ (CofJ^1-24 peptide) purchased from Scrum Co., Ltd. and ΔN28-CofB was carried out using an isothermal titration calorimeter Microcal iTC200 (manufactured by GE Healthcare) in the same manner as described above. A 2 mM CofJ^1-24 peptide solution was charged in a titration syringe and a 33.9 μM (in terms of trimer) ΔN28-CofB solution was charged in a measuring cell, respectively, and the interaction of them was evaluated by directly observing heat changes that occur upon dropping the CofJ^1-24 peptide solution into the ΔN28-CofB solution. An exothermic change was observed by dropping the CofJ^1-24 peptide solution, which converged to the same level as the heat of dilution as the titration progressed. As a result of analysis of the obtained data using an analysis software Origin, binding of the CofJ^1-24 peptide and ΔN28-CofB was observed. The dissociation constant Kd value of both was 4 μM.
Next, in order to investigate the binding specificity of the CofJ^1-24 peptide, analysis of the interaction between a synthetic random peptide (CofJpepR) purchased from Scrum Co., Ltd. and ΔN28-CofB was carried out using an isothermal titration calorimeter Microcal iTC 200 (manufactured by GE Healthcare). A 2 mM random peptide solution was charged in a titration syringe and a 28.5 μM (in terms of trimer) ΔN28-CofB solution was charged in a measuring cell, respectively, and the interaction of them was evaluated by directly observing heat changes that occur upon dropping the […] into the ΔN28-CofB solution. No change in caloric value due to dropping of the random peptide solution was observed. […]

[1] = test system: binding of CofJ and Trx-His-ΔN28-CofB; experiment: Pull down assay using a Ni column, inhibition of CofB/CofJ binding; parameters: species or system enterotoxigenic Escherichia coli (ETEC); conditions: SDS-PAGE
Description: To examine whether the CofJ^1-24-GCN4 inhibitory peptide is capable of inhibiting the binding of CofB and CofJ, it was confirmed in the in vitro experiment system by pull down assay using a Ni column. For experiments, ΔN28-CofB (Trx-His-ΔN28-CofB), CofJ, CofJ^1-24-GCN4, a CofJ^1-24 peptide and a peptide (CofJpepR) in which the amino acid sequence of the CofJ^1-24 peptide was randomized, with added thioredoxin tag (Trx) and His tag, were used. The sequence of CofJpepR is […] (SEQ ID NO: 22).
(§1) Solutions mixed so that the concentration of Trx-His-ΔN28-CofB was 1 μM and the concentration of CofJ^1-24-GCN4 was (0, 0.5, 1.0, 2.0, 5.0, 10.0 μM) were allowed to stand still on ice overnight. Further, CofJ was mixed so that the final concentration became 1 μM, and the mixtures were allowed to stand still on ice for 1 hour, to obtain experiment samples. Each sample was applied to a Ni column equilibrated with 20 mM Tris-HCl, 150 mM NaCl, pH 8.0, and the column was washed with 20 mM Tris-HCl, 150 mM NaCl, 15 mM Imidazole, pH 8.0. Thereafter, elution was performed with 20 mM Tris-HCl, 150 mM NaCl, 300 mM Imidazole, pH 8.0, and the eluted fraction was confirmed by SDS-PAGE.
Also for the CofJ^1-24 peptide and CofJpepR, the inhibition ability thereof was investigated by the same method. Specifically, solutions mixed so that the concentration of Trx-His-ΔN28-CofB was 1 μM and the concentration of the CofJ^1-24 peptide and CofJpepR was 1000 μM were allowed to stand still on ice overnight. Further, CofJ was mixed so that the final concentration became 1 μM, and the mixtures were allowed to stand still on ice for 1 hour, to obtain experiment samples. The pull down assay was performed in the same manner as described above. […] From this, it is considered that CofJ^1-24-GCN4 can inhibit the binding between CofB and CofJ by strongly binding with CofB by trimerizing.
In order to investigate whether the CofJ^4-16-GCN4 inhibitory peptide can inhibit the binding of CofB and CofJ, it was confirmed in the in vitro experimental system by a pull down assay using a Ni column. For the experiment, ΔN28-CofB (Trx-His-ΔN28-CofB), CofJ and CofJ^4-16-GCN4, with added thioredoxin tag (Trx) and His tag (His), were used.
as §1, with “CofJ^4-16-GCN4” for “CofJ^1-24-GCN4”, “Thereafter, elution was performed with 20 mM Tris-HCl, 150 mM NaCl, 300 mM Imidazole, pH 8.0, and the eluted fraction was confirmed by SDS-PAGE.” left out

[2] = test system: HB101 cof adhesion to Caco2 cells; experiment: ETEC adhesion inhibitory activity using Caco2 cells; type: cell-based, Escherichia coli; conditions: 1, 10, 100 μg/mL
Description: First, Caco2 cells were dispersed using Dulbecco's Modified Eagle's Medium (DMEM) containing 50 μg/mL gentamicin and 10% fetal bovine serum, the cell concentration was measured using a blood cell counting chamber and diluted to 3.0×10^5 cells/mL. Dilution liquid was added to a 6-well plate each in an amount of 500 μL, and culture was performed by allowing the plate to stand still in a CO2 incubator at 5% CO2 and 37° C. for 48 hours. The cultured Caco2 cells were washed with PBS twice. After washing, DMEM containing 100 μg/mL ampicillin and 1% D-mannose was filtrated by passing through a 0.22 μm filter, then, the solution was added each in an amount of 500 μL to each well.
Next, a small amount of the glycerol stock of HB101 cof was scraped off and added to LB medium containing 100 μg/mL ampicillin, and shaking culture was carried out overnight at 25° C. The culture liquid was suitably diluted and OD660 of the culture liquid was calculated using a turbidimeter. The culture liquid was serially diluted and CFU (colony forming unit) was measured. From the measured CFU, the concentration (cells/mL) of HB101 cof at OD660=1.0 was calculated. This calculated value was used to determine the concentration of HB101 cof later. […]
ETEC adhesion inhibitory activity was evaluated in the same manner as in Example 9 using CofJ^4-16-GCN4. […]

[3] = peptide 1000 μM (1000 times that of CofJ, 1 μM)
[4] = peptide premixed at a concentration not lower than that of CofJ (1 μM), 0.5-10.0 μM tested

NPSGFDKSGSSTTRTPAMSVIVDE [CofJpepR, reference compound]
binding to ΔN28-CofB (change in caloric value) (ΔN28-CofB; 28.5 μM ΔN28-CofB in cell): do not bind
inhibition of the binding of CofJ and Trx-His-ΔN28-CofB [1, 3]: can not be inhibited at all

CofJ^4-16-GCN4: GPLG, SSEGGAFTVNMPK (SEQ ID NO: 23), linker TSGGG (SEQ ID NO: 9) and GCN4 sequence (SEQ ID NO: 6); expressed in E. coli
Kd (ΔN28-CofB): 0.08 µM
binding affinity to ΔN28-CofB compared with the binding affinity between CofJ and ΔN28-CofB (ΔN28-CofB): about 2.5 times
inhibition of the binding of CofJ and Trx-His-ΔN28-CofB [1, 4]: strongly inhibited
inhibition of colonization of HB101 cof to Caco2 cells [2]: inhibits colonization of HB101 cof to Caco2 cells in concentration-dependent manner

SSEGGAFTVNMPK [CofJ^4-16 peptide, reference compound]
Kd (ΔN28-CofB): 4 µM

SPSSSEGGAFTVNMPKTSTVDDIR [CofJ^1-24 peptide, reference compound]
Kd (ΔN28-CofB): 4 µM
inhibition of the binding of CofJ and Trx-His-ΔN28-CofB [1, 3]: hardly inhibited

CofJ^1-24-GCN4: GPLG, CofJ 1-24 sequence (SEQ ID NO: 1), linker TSGGG (SEQ ID NO: 9) and GCN4 sequence (SEQ ID NO: 6); expressed in E. coli
Kd (ΔN28-CofB): 0.04 µM
binding affinity to ΔN28-CofB compared with the binding affinity between CofJ and ΔN28-CofB (ΔN28-CofB): about 5 times
inhibition of the binding of CofJ and Trx-His-ΔN28-CofB [1, 4]: strongly inhibited
inhibition of colonization of HB101 cof to Caco2 cells [2]: inhibits colonization of HB101 cof to Caco2 cells in concentration-dependent manner
